Reference: the supplement of paper PMC11061612

Legend:
AZD8186 = compound: C[C@@H](Nc1cc(F)cc(F)c1)c1cc(C(=O)N(C)C)cc2c(=O)cc(N3CCOCC3)oc12 [AZD8186]; details: max 3 µM
Summary of the method: (§1)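 Following 24 hours at 37°C and 5% CO2, cancer cell lines in 1536-well plates with 7.5 μl DMEM/F12 or RPMI and 10% FBS were dosed for 72 hours, final DMSO typically being 0.2%. CellTiter-Glo 2.0 luminescence, scaled between blank-well and DMSO-well means, gave the viability readout. Dose responses were fitted to a two-parameter logistic curve with a non-linear mixed effects model, and the single-agent IC50 was derived from this fit.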

Savolitinib = compound: C[C@@H](c1ccc2nccn2c1)n1nnc2ncc(-c3cnn(C)c3)nc21 [Savolitinib]; details: max 1 µM
Summary of the method: as §1

Prexasertib = compound: COc1cccc(OCCCN)c1-c1cc(Nc2cnc(C#N)cn2)n[nH]1 [Prexasertib]; details: max 1 µM
Summary of the method: as §1

AZD2811 = compound: CCN(CCO)CCCOc1ccc2c(Nc3cc(CC(=O)Nc4cccc(F)c4)[nH]n3)ncnc2c1 [AZD2811]; details: max 1 µM
Summary of the method: as §1

AZD5991 = compound: Cc1c2c(nn1C)CSCc1cc(n(C)n1)CSc1cc(c3ccccc3c1)OCCCc1c(C(=O)O)n(C)c3c-2c(Cl)ccc13 [AZD5991]; details: max 1 µM
Summary of the method: as §1

Selumetinib = compound: Cn1cnc2c(F)c(Nc3ccc(Br)cc3Cl)c(C(=O)NOCCO)cc21 [Selumetinib]; details: max 10 µM
Summary of the method: as §1

SG3199 = compound: CC1=CN2[C@@H](C1)C=NC3=CC(=C(C=C3C2=O)OC)OCCCCCOC4=C(C=C5C(=C4)N=C[C@@H]6CC(=CN6C5=O)C)OC [SG3199]; details: max 0.001 µM
Summary of the method: as §1

Crizotinib = compound: C[C@@H](Oc1cc(-c2cnn(C3CCNCC3)c2)cnc1N)c1c(Cl)ccc(F)c1Cl [Crizotinib]; details: max 10 µM
Summary of the method: as §1

AZD1390 = compound: CC(C)n1c(=O)n(C)c2cnc3cc(F)c(-c4ccc(OCCCN5CCCCC5)nc4)cc3c21 [AZD1390]; details: max 0.3 µM
Summary of the method: as §1

Gefitinib = compound: COc1cc2ncnc(Nc3ccc(F)c(Cl)c3)c2cc1OCCCN1CCOCC1 [Gefitinib]; details: max 10 µM
Summary of the method: as §1

SN-38 = compound: CCc1c2c(nc3ccc(O)cc13)-c1cc3c(c(=O)n1C2)COC(=O)[C@]3(O)CC [SN-38]; details: max 0.3 µM
Summary of the method: as §1

AZD5153 = compound: COc1nnc2ccc(N3CCC(c4ccc(OCCN5CCN(C)C(=O)[C@H]5C)cc4)CC3)nn12 [AZD5153]; details: max 1 µM
Summary of the method: as §1

Trametinib = compound: CC(=O)Nc1cccc(-n2c(=O)n(C3CC3)c(=O)c3c(Nc4ccc(I)cc4F)n(C)c(=O)c(C)c32)c1 [Trametinib]; details: max 1 µM
Summary of the method: as §1

Dasatinib = compound: CC1=C(C(=CC=C1)Cl)NC(=O)C2=CN=C(S2)NC3=CC(=NC(=N3)C)N4CCN(CC4)CCO [Dasatinib]; details: max 2 µM
Summary of the method: as §1

AZD1775 = compound: C=CCn1c(=O)c2cnc(Nc3ccc(N4CCN(C)CC4)cc3)nc2n1-c1cccc(C(C)(C)O)n1 [AZD1775]; details: max 3 µM
Summary of the method: as §1

Alisertib = compound: COc1cc(Nc2ncc3c(n2)-c2ccc(Cl)cc2C(c2c(F)cccc2OC)=NC3)ccc1C(=O)O [Alisertib]; details: max 10 µM
Summary of the method: as §1

Taselisib = compound: Cc1nc(-c2cn3c(n2)-c2ccc(-c4cnn(C(C)(C)C(N)=O)c4)cc2OCC3)n(C(C)C)n1 [Taselisib]; details: max 10 µM
Summary of the method: as §1

Capivasertib = compound: C1CN(CCC1(C(=O)N[C@@H](CCO)C2=CC=C(C=C2)Cl)N)C3=NC=NC4=C3C=CN4 [Capivasertib]; details: max 10 µM
Summary of the method: as §1

Palbociclib = compound: CC(=O)c1c(C)c2cnc(Nc3ccc(N4CCNCC4)cn3)nc2n(C2CCCC2)c1=O [Palbociclib]; details: max 10 µM
Summary of the method: as §1

AZD6738 = compound: C[C@@H]1COCCN1C2=NC(=NC(=C2)C3(CC3)[S@](=N)(=O)C)C4=C5C=CNC5=NC=C4 [AZD6738]; details: max 10 µM
Summary of the method: as §1

AZD4320 = compound: CN(CC[C@H](CSC1=CC=CC=C1)NC2=C(C=C(C=C2)S(=O)(=O)NC(=O)C3=CC=C(C=C3)N4CCC(CC4)[C@H](C5=CC=CC=C5C6=CC=C(C=C6)Cl)O)S(=O)(=O)C(F)(F)F)CCO [AZD4320]; details: max 1 µM
Summary of the method: as §1

AZD7648 = compound: Cc1cc2ncnn2cc1Nc1ncc2c(n1)n(C1CCOCC1)c(=O)n2C [AZD7648]; details: max 10 µM
Summary of the method: as §1

Olaparib = compound: O=C(c1cc(Cc2n[nH]c(=O)c3ccccc23)ccc1F)N1CCN(C(=O)C2CC2)CC1 [Olaparib]; details: max 10 µM
Summary of the method: as §1

Venetoclax = compound: CC1(C)CCC(CN2CCN(c3ccc(C(=O)NS(=O)(=O)c4ccc(NCC5CCOCC5)c([N+](=O)[O-])c4)c(Oc4cnc5[nH]ccc5c4)c3)CC2)=C(c2ccc(Cl)cc2)C1 [Venetoclax]; details: max 1 µM
Summary of the method: as §1

AZD0156 = compound: CN(C)CCCOc1ccc(-c2ccc3ncc4c(c3c2)n(C2CCOCC2)c(=O)n4C)cn1 [AZD0156]; details: max 3 µM
Summary of the method: as §1

Doxorubicin = compound: COc1cccc2c1C(=O)c1c(O)c3c(c(O)c1C2=O)C[C@@](O)(C(=O)CO)C[C@@H]3O[C@H]1C[C@H](N)[C@H](O)[C@H](C)O1 [Doxorubicin]; details: max 1 µM
Summary of the method: as §1

Lapatinib = compound: CS(=O)(=O)CCNCc1ccc(-c2ccc3ncnc(Nc4ccc(OCc5cccc(F)c5)c(Cl)c4)c3c2)o1 [Lapatinib]; details: max 10 µM
Summary of the method: as §1

Cell Line	IC50, cell viability 72 h (AZD8186) [µM]	IC50, cell viability 72 h (Savolitinib) [µM]	IC50, cell viability 72 h (Prexasertib) [µM]	IC50, cell viability 72 h (AZD2811) [µM]	IC50, cell viability 72 h (AZD5991) [µM]	IC50, cell viability 72 h (Selumetinib) [µM]	IC50, cell viability 72 h (SG3199) [µM]	IC50, cell viability 72 h (Crizotinib) [µM]	IC50, cell viability 72 h (AZD1390) [µM]	IC50, cell viability 72 h (Gefitinib) [µM]	IC50, cell viability 72 h (SN-38) [µM]	IC50, cell viability 72 h (AZD5153) [µM]	IC50, cell viability 72 h (Trametinib) [µM]	IC50, cell viability 72 h (Dasatinib) [µM]	IC50, cell viability 72 h (AZD1775) [µM]	IC50, cell viability 72 h (Alisertib) [µM]	IC50, cell viability 72 h (Taselisib) [µM]	IC50, cell viability 72 h (Capivasertib) [µM]	IC50, cell viability 72 h (Palbociclib) [µM]	IC50, cell viability 72 h (AZD6738) [µM]	IC50, cell viability 72 h (AZD4320) [µM]	IC50, cell viability 72 h (AZD7648) [µM]	IC50, cell viability 72 h (Olaparib) [µM]	IC50, cell viability 72 h (Venetoclax) [µM]	IC50, cell viability 72 h (AZD0156) [µM]	IC50, cell viability 72 h (Doxorubicin) [µM]	IC50, cell viability 72 h (Lapatinib) [µM]
ALL-SIL (T-Lymphoblastic Leukemia)	> 3	> 1	0.00565	0.00494	0.141	> 10	> 0.001	0.244	> 0.3	> 10	0.00152	0.237	> 1	< 0.002	0.449	0.0447	6.05	> 10	> 10	1.43	0.00978	> 10	> 10	0.257	> 3	0.146	> 10
CADO-ES1 (Ewing's Sarcoma)	> 3	> 1	0.05	> 1	0.207	> 10	> 0.001	> 10	> 0.3	> 10	0.00206	> 1	> 1	> 2	2.29	0.135	> 10	> 10	> 10	2.89	0.243	> 10	> 10	0.0609	> 3	0.827	> 10
EJM (Plasma Cell Myeloma)	> 3	> 1	0.00891	> 1	0.332	> 10	> 0.001	6.79	> 0.3	> 10	0.0259	0.414	> 1	> 2	0.202	> 10	> 10	> 10	> 10	1.65	> 1	> 10	> 10	> 1	> 3	0.837	> 10
EW-1 (Ewing's Sarcoma)	> 3	> 1	0.0109	> 1	> 1	> 10	> 0.001	2.04	> 0.3	> 10	0.00454	0.357	> 1	> 2	0.294	4.9	0.64	> 10	5.21	2.48	0.586	> 10	6.67	> 1	> 3	0.317	> 10
G-401 (Other Solid Carcinomas)	> 3	> 1	0.239	> 1	> 1	> 10	> 0.001	5.41	> 0.3	> 10	0.0589	0.0483	0.0842	> 2	1.41	1	0.336	2.71	0.833	> 10	> 1	> 10	> 10	> 1	> 3	0.111	> 10
HCC2998 (Colorectal Carcinoma)	> 3	> 1	0.0188	> 1	0.259	0.382	> 0.001	> 10	> 0.3	> 10	0.144	0.314	0.0141	> 2	0.981	> 10	5.39	> 10	> 10	3.12	0.485	> 10	> 10	> 1	> 3	0.389	> 10
Hey (Ovarian Carcinoma)	> 3	> 1	0.128	> 1	> 1	3.04	> 0.001	> 10	> 0.3	> 10	0.032	0.476	0.0598	0.45	1.2	1.24	7.99	> 10	> 10	6.18	> 1	> 10	> 10	> 1	> 3	0.398	> 10
